Series [1] can be described thus: Cytotoxicity by methylene blue assay. The conditions noted are these: human, Huh-luc/neo-ET cells. The format is cell-based. As for the experimental part: The cytotoxicity of different herbal extract or components was measured by methylene blue assay. Huh-luc/neo-ET cells were seeded at a density of 7 × 10^3 cells per well in 96-well plate and treated with serial dilution of different herb extracts for 72 h. Cells were fixed and stained with 0.5% methylene blue in 50% ethanol, and then washed with tap water. After air-dry, cells were solubilized with 1% Sarkosyl and cell viability was determined from the extent absorption by spectrophotometric measurements at 595 nm (Spectra Max M5, Molecular Devices).

Series [2] deals with HCV genotype 1b (Con1) replicon. As to the kind of experiment: Anti-HCV luciferase reporter assay on Huh-luc/neo-ET replicon cells. Conditions: Hepatitis C virus, GETYPE1B, 72 h.
Series [3] has as its system different subtypes of human and avian influenza viruses. Conditions: cited from earlier work.
In series [4] the test system is HCV JFH1-GFP chimeric virus. Also noted: method as in PMID 22491814. The conditions noted are these: read-out: EC50, replication of HCV JFH1-GFP chimeric virus; cited from earlier work.
In a further series the test system is HCV entry. Also noted: method as in PMID 22491814. Conditions: cited from earlier work.
The next series relates to J399EM virus. Also noted: method as in PMID 22491814. The conditions noted are these: cited from earlier work.
Where [5] appears, read: read-out: Anti-HCV Activity (EC50, 72 h).
Where [6] appears, read: read-out: Anti-HCV Activity (EC50).
[7] abbreviates: read-out: Anti-HCV Activity (EC50), in brackets as mass concentration.

Like-named read-outs stand apart in the source and are kept apart here.

`O=C(O)c1cc(O)c(O)c(O)c1` [Gallic acid, gallic acid] gave an IC50 at 72 h in series [1] greater than 100 µM. Besides, the EC50 in series [2] (setting [5]) is greater than 100 µM.
In turn, `Oc1cc(O)c2c(c1)O[C@H](c1ccc(O)c(O)c1)[C@H](O)C2` [EC, epicatechin] showed an IC50 at 72 h in series [1] greater than 100 µM. Further, in series [2] (setting [5]), the EC50 is greater than 100 µM.
As to `CCC[C@H](NC(=O)[C@@H]1[C@H]2CCC[C@H]2CN1C(=O)[C@@H](NC(=O)[C@@H](NC(=O)c1cnccn1)C1CCCCC1)C(C)(C)C)C(=O)C(=O)NC1CC1` [Telaprevir, telaprevir], the figures for the EC50 in series [2] (setting [6]) and in series [2] (setting [7]) were 0.185 ± 0.035 µM and 126 ng/mL, respectively.
For the compound `COc1cc(C[C@H]2CO[C@H](c3ccc(O[C@@H]4O[C@H](CO)[C@@H](O)[C@H](O)[C@H]4O)c(OC)c3)[C@H]2CO)ccc1O[C@@H]1O[C@H](CO)[C@@H](O)[C@H](O)[C@H]1O` [Clemastanin B], the “inhibitory concentrations against influenza viruses” value in series [3] was “below 1 mg/mL”.
As for `COc1ccc2c(O[C@@H]3C[C@H]4C(=O)N[C@]5(C(=O)NS(=O)(=O)C6CC6)C[C@H]5/C=C\CCCCN(C)C(=O)[C@@H]4C3)cc(-c3nc(C(C)C)cs3)nc2c1C` [Simeprevir, simeprevir], the EC50 was 0.00127 ± 0.00025 µM in series [2] (setting [6]) and 42.5 ng/mL in series [2] (setting [7]).
The like results for `COC(=O)N[C@H](C(=O)N1CCC[C@H]1c1nc(-c2ccc(-c3ccc(-c4c[nH]c([C@@H]5CCCN5C(=O)[C@@H](NC(=O)OC)C(C)C)n4)cc3)cc2)c[nH]1)C(C)C` [Daclatasvir, daclatasvir] were, in that order, 8e-06 ± 1e-06 µM and 0.00591 ng/mL.
In series [1], `Oc1cc(O)c2c(c1)O[C@H](c1ccc(O)c(O)c1)[C@@H](O)C2` [(+)-Catechin] yielded an IC50 at 72 h greater than 100 µM. In addition, in series [2] (setting [5]), the EC50 was greater than 100 µM.
For the compound `O=C(O[C@@H]1Cc2c(O)cc(O)cc2O[C@@H]1c1cc(O)c(O)c(O)c1)c1cc(O)c(O)c(O)c1` [EGCG, epigallocatechin gallate], the EC50 was 17.9 µM in series [4], 25 µM with HCV entry, 80 µM in the series with J399EM virus and 68.7 ± 4.51 µM in series [2] (setting [5]). The compound further gave a half-inhibitory concentration (IC50) at 72 h in series [1] greater than 100 µM.
As for `Oc1cc(O)c2c(c1)O[C@H](c1cc(O)c(O)c(O)c1)[C@H](O)C2` [EGC, epigallocatechin], the IC50 at 72 h in series [1] was greater than 100 µM. Further, the EC50 in series [2] (setting [5]) was greater than 100 µM.
In series [1], `O=C(O[C@@H]1Cc2c(O)cc(O)cc2O[C@@H]1c1ccc(O)c(O)c1)c1cc(O)c(O)c(O)c1` [ECG, epicatechin gallate] gave an IC50 at 72 h greater than 100 µM. The EC50 in series [2] (setting [5]) was found to be 69.8 ± 5.62 µM.
`CC(C)OC(=O)[C@H](C)N[P@](=O)(OC[C@H]1O[C@@H](n2ccc(=O)[nH]c2=O)[C@](C)(F)[C@@H]1O)Oc1ccccc1` [Sofosbuvir, sofosbuvir]: the EC50 was 0.0263 ± 0.0055 µM in series [2] (setting [6]) and 13.9 ng/mL in series [2] (setting [7]).
